The source of these data is patent publication US8097624B2, “Cycloalkyl derivatives of 3-hydroxy-4-pyridinones” (Apotex Inc., priority 2006, dated 2012).

Data set [1] in a line: Metal complexation constants, Mg system. It counts as binding. The method, then: (§1) In a typical experiment, the sample solution was prepared by the following method: Apo6619 (31.91 mg) was weighed into a 25-ml beaker followed by the addition of 0.1 M NaCl (18.9 ml). The mixture was sonicated for 10 minutes to give a clear colorless solution. Aluminum stock solution (atomic absorption standard, Aldrich, 971 μl, 3.59×10^−5 mole) was pipetted into the solution followed by the addition of 1.000 N NaOH (229 μl) to give pH 8.56. The molar ratio between the total Aluminum and the total Apo6619 was 1:4. For M^2+ metals, a molar ratio of 1:3 was used. Nitrogen was allowed to bubble through the solution. The mixture was allowed to equilibrate at 22° C. for 2 hours. 1.000 N Hydrochloric acid (264 μl) was then added to the solution to give pH 2.20. The solution was allowed to equilibrate at 22° C. for 1 hour.
(§2) The solution was titrated against 1.000 N NaOH at 22° C. to reach pH 11.0. For each addition of base, the solution was allowed to equilibrate until a constant pH reading was reached. The volume of the base added and the pH reading were then recorded for each measurement. 93 measurements were used in the experiment.
(§3) The data set of pH vs. base volume was analyzed using Hyperquad 2000. Given the model: L^−+H^+ ? LH (pKa1), LH+H^+ ? LH2^+ (pKa2), Al^3++L^− ? ^AlL^2+ (K1), AlL^2++L^− ? AlL2^+ (K2), AlL2^++L^− ? AlL3 (K3), and β3=K1K2K3, the stepwise formation constants for Al-Apo6619 system were optimized as log K1=12.6(2); log K2=9.2(1); log K3=8.4(1); log β3=30.2(2).
(§4) pM^n+ is defined as −log [M(H2O)m]^n+ at physiological conditions, i.e.: pH 7.4, a ligand concentration of 10 μM, and a metal concentration of 1 μM.
(§5) To calculate pM^n+ for a MLn system, βn and pKa values are needed (βn are the formation constants for M^n++n L^− ? MLn; pKa are the equilibrium constants for L^−+n H^+ ? LHn^(n−1)+). The pM^n+ can be calculated by using Hyss software (Hyperquad Stimulation and Speciation software: HYSS2© 2000 Protonic Sofware).

Data set [2] is described as follows: Metal complexation constants, Al system (potentiometric titration; pM by Hyss). The class given is binding. The note with it: pH 7.4, ligand 10 μM, metal 1 μM. On the procedure: as §1, with “1.000 N Hydrochloric acid (264 μl) was then added to the solution to give pH 2.20. The solution was allowed to equilibrate at 22° C. for 1 hour.” left out
The solution was titrated against 1.000 N NaOH at 22° C. to reach pH 11.0. For each addition of base, the solution was allowed to equilibrate until a constant pH reading was reached. The volume of the base added and the pH reading were then recorded for each measurement. […]
The data set of pH vs. base volume was analyzed using Hyperquad 2000. […]
as §5

Data set [3] can be described thus: Metal complexation constants, Cu system. It counts as binding. The method, then:
as §1, §2, §3, §4, §5

Data set [4] in a line: Metal complexation constants, Zn system. It counts as binding. The method, then:
as §1, §2, §3, §4, §5

Data set [5] in a line: Metal complexation constants, Ca system. It counts as binding. On the procedure:
as §1, §2, §3, §4, §5

The nature of data set [6]: Metal complexation constants, Mn system. It counts as binding. The method, then: as §1, §2, §3, §4, §5
For data set [7] the following is noted: Drug Metab. Dispo. 1992; cited from earlier work.
[8] abbreviates: pH 7.4, ligand 10 μM, metal 1 μM.

`CNC(=O)c1c(O)c(=O)cc(C)n1C1CC1` [Apo6619, 1-Cyclopropyl-3-hydroxy-6-methyl-4-oxo-1,4-dihydro-pyridine-2-carboxylic Acid Methylamide]: in data set [1] (log scale), the “log K1 Mg(II)” value was found to be 4.1, the “log K2 Mg(II)” value was 3.2 and the “log β2 Mg(II)” value turned out to be 7.3. Further, in data set [1] (setting [8]), the “PM Mg(II)” value was 6.0. For the same compound, the “PM Al(III)” value in data set [2] amounted to 13.9. Moreover, in data set [3] (log scale), the “log K1 Cu(II)” value worked out at 8.9, the “log K2 Cu(II)” value is recorded as 7.7 and the “log β2 Cu(II)” value was 16.6. Also, in data set [3] (setting [8]), the “PM Cu(II)” value worked out at 10. Also, in data set [4] (log scale), the “log K1 Zn(II)” value is 6.3, the “log K2 Zn(II)” value came out at 5.8 and the “log β2 Zn(II)” value is reported as 12.1. For the same compound, the “PM Zn(II)” value in data set [4] (setting [8]) came out at 6.4. In addition, in data set [5] (log scale), the “log K1 Ca(II)” value is 3, the “log K2 Ca(II)” value was determined as 2.1 and the “log β2 Ca(II)” value was 5.1. Further, in data set [5] (setting [8]), the “PM Ca(II)” value turned out to be 6.0. Besides, in data set [6] (log scale), the “log K1 Mn(II)” value turned out to be 5.1, the “log K2 Mn(II)” value is 4.3 and the “log β2 Mn(II)” value came out at 9.4. Further, the “PM Mn(II)” value in data set [6] (setting [8]) came out at 6.0.

As for `Cc1c(O)c(=O)ccn1C` [deferiprone, 1,2-dimethyl-3-hydroxy-4-pyridinone, reference compound], the “administered dose recovered in the urine as the non-chelating O-glucuronide” value in data set [7] is reported as “more than 85%”.
